Square brackets hold non-standard residues; d marks the D form. Peptide text beside a SMILES is read from it. d(hArg(Et2)) = CCN=C(NCC)NCCCC[C@@H](N)C(=O)O; hArg(Et2) = CCN=C(NCC)NCCCC[C@H](N)C(=O)O; dPhe(4-Cl) = N[C@H](Cc1ccc(Cl)cc1)C(=O)O; d2Nal = N[C@H](Cc1ccc2ccccc2c1)C(=O)O; dCit = NC(=O)NCCC[C@@H](N)C(=O)O; d3Pal = N[C@H](Cc1cccnc1)C(=O)O
How the values were obtained:
β-catenin activation = assay: Immunofluorescence of active β-catenin in HEK293/GnRHR cells; type: cell-based, human; conditions: 1 µM GnRH + 1 µM antagonist, 1 h
Experimental: In order to evaluate the activation of phospho-proteins and β-catenin by Western blotting and immunofluorescence, 1 × 10^5 HEK293 cells were transiently transfected in a 24-well plate. To this purpose, 500 ng of GnRHR-HA-encoding vector diluted in 2 µL/well Lipofectamine® 2000 Transfection Reagent (Invitrogen) were used, according to the manufacturer’s instructions. Transfected HEK293 cells (HEK293/GnRHR) were cultured for 48 h and maintained over-night in serum-free medium before experiments.
3 × 10^4 HEK293/GnRHR and mock-transfected HEK293 cells (negative control) were plated on gelatine-treated slides. […] As a positive control, cells were treated for 16 h with 100 nM of the selective glycogen synthase kinase 3 (GSK3) inhibitor, CHIR99021 (Sigma-Aldrich), which stabilizes free cytosolic β-catenin [68]. After stimulations, cells were washed in PBS with Ca^2+/Mg^2+ and fixed for 20 min in paraformaldehyde 4%/PBS. Cell monolayers were washed by PBS and permeabilized using 0.1% Triton X-100. Samples were incubated in 4% bovine serum albumin (BSA)/PBS, for 1 h at room temperature (RT), before incubation with a mouse primary antibody targeting β-catenin (#05-665, 1:300 dilution in 4% BSA/PBS; Merck KGaA) overnight at 4 °C. Following washing, cells were then incubated with Cy3-conjugated anti-mouse IgG secondary antibody (#C2181, 1:200 dilution in 4% BSA/PBS; Sigma-Aldrich) for 1 h at RT. Cell monolayers were then stained for 10 min with 4′,6-diamidino-2-phenylindole (DAPI) (Sigma-Aldrich) and washed in PBS before slide treatment by polyvinyl alcohol mounting medium with 1,4-diazabicyclo[2.2.2]octane (DABCO®) (Sigma-Aldrich). Fluorescent signals were detected using the Eclipse Ni-E microscope (Nikon Instruments BV, Amsterdam, The Netherlands).

GnRH receptor (GnRHR) = molecular target: T1, GnRH receptor (GnRHR) (Homo sapiens, UniProt P30968); assay: BRET measurement of GnRH-induced intracellular Ca2+ increase in SH-SY5Y/GnRHR cells; type: cell-based; parameters: HA (hemagglutinin); expressed in transfected cells; conditions: means±SEM, n=6
T1 sequence (P30968 1-328): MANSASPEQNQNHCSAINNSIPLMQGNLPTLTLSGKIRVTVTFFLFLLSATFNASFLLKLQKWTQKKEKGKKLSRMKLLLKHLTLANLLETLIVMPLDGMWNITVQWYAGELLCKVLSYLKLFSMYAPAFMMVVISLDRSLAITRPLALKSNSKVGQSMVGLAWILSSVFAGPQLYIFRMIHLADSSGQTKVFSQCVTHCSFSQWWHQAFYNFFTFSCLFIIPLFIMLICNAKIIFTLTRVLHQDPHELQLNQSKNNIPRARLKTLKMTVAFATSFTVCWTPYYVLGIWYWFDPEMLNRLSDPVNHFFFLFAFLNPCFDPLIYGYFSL
Experimental: Different transfection protocols were followed, depending on the endpoint to be measured. For BRET experiments, 3 × 10^4 cells were transiently transfected using vectors expressing the cAMP-CAMYEL or the aequorin-Ca^2+ BRET biosensor-encoding cDNA [59], as appropriate, together with the GnRHR-HA-encoding vector. Transfections were performed in a 96-well plate using the Metafectene PRO reagent (Biontex, München, Germany), as previously described. 100 ng of the receptor-encoding vector + 100 ng of the BRET biosensor-encoding vector were used for co-transfecting HEK293 cells, while SH-SY5Y cells were co-transfected using 200 ng of the receptor-encoding vector + 100 ng of the BRET biosensor-encoding vector. 200 ng of the aequorin-Ca^2+ BRET biosensor-encoding cDNA were used for transfecting LβT2 cells. Each sample was prepared in duplicate, cultured for 48 h and serum-starved over-night before experiments.
To evaluate Ca^2+ increase, cells were incubated in Hank’s Balanced Salt Solution (HBSS) with Ca^2+ and Mg^2+, 1 mM Hepes and 5 µM Coelenterazine H (NanoLight Technologies, a division of Prolume, Ltd., Pinetop, AZ, USA), for 45 minutes, together with Cetrorelix, Ganirelix, Teverelix or vehicle, as appropriate. […] The EC50 was extrapolated from the curve obtained from each cell line. Cells treated by 5 µM of the sarco/endoplasmic reticulum Ca^2+ ATPase enzyme inhibitor, thapsigargin (Tocris Bioscience), served as positive control. Treatment by the vehicle (HBSS) was the negative control and used as a normalizer.
BRET experiments were performed using a CLARIOstar plate reader equipped by a monocromator (BMG Labtech, Ortenberg, Germany), as previously described.
Data were plotted on graphs as means ± standard error of means (SEM). The kinetics of intracellular Ca^2+ increase was represented by the BRET biosensor emission after background subtraction (vehicle). […] Data distributions were analyzed by D’Agostino and Pearson normality tests and inhibition of intracellular Ca^2+ increase by different concentrations of antagonist were compared using two-way analysis of variance (ANOVA), followed by Bonferroni post-test or Kruskal-Wallis and proper post-test. cAMP accumulation was represented as acceptor:donor emission ratio (induced BRET changes) after basal subtraction (untreated cells). Dose-response curves were obtained by data interpolation using non-linear regressions and normalized as percentage of the maximal response. EC50s, as well as half-maximal inhibitory concentrations (IC50), were compared by t-test or Mann–Whitney U test, while results obtained by Western blotting and qRT-PCR data were compared by one-way ANOVA followed by Bonferroni post-test. Statistical differences were considered as significant for p < 0.05. These analyses were performed using the GraphPad Prism software (GraphPad Software Inc., San Diego, CA, USA).

Lhb gene expression = Lhb gene expression by qRT-PCR in LβT2 cells; type: cell-based, mouse; conditions: 1 µM GnRH + 1 µM antagonist, 24 h, n = 4
Experimental: LβT2 cells were seeded in 24-well plates (2 × 10^5 cells/well) and cultured for 24 h in DMEM supplemented with 10% Charcoal Stripped FBS, 4.5 g/L glucose, 100 IU/mL penicillin, 0.1 mg/mL streptomycin, and 1 mM glutamine (all from Sigma-Aldrich) before treatments. […] Samples were lysed for RNA extraction using TRIzolTM Reagent (Invitrogen) and equal amounts of total RNA were used for cDNA synthesis performed using the iScript reverse transcriptase (BioRad), as previously described. qRT-PCR was carried out in triplicates on the CFX96TM Real-Time PCR Detection System (BioRad) using the following primers pairs: [NT] for mouse Lhb; [NT] for mouse Gapdh. Primer sequences were drawn using the Mus musculus Lhb (NCBI Reference Sequence: NM_008497.2) and Gapdh (NM_008084.3) mRNAs as templates. Gene expression of Lhb was normalized to mouse Gapdh gene expression using the 2^-ΔΔCt method.

[1] = 3xEC50 GnRH + 100 pM antagonist
[2] = 3xEC50 GnRH + 100 nM antagonist

SMILES	effect on GnRH-induced active β-catenin staining (β-catenin activation)	AUC of the kinetics of intracellular Ca2+ response (GnRH receptor (GnRHR); 3xEC50 GnRH + 1 pM antagonist)	AUC of the kinetics of intracellular Ca2+ response (GnRH receptor (GnRHR); 3xEC50 GnRH + 10 pM antagonist)	AUC of the kinetics of intracellular Ca2+ response (GnRH receptor (GnRHR); [1])	AUC of the kinetics of intracellular Ca2+ response (GnRH receptor (GnRHR); 3xEC50 GnRH + 1 nM antagonist)	AUC of the kinetics of intracellular Ca2+ response (GnRH receptor (GnRHR); 3xEC50 GnRH + 10 nM antagonist)	AUC of the kinetics of intracellular Ca2+ response (GnRH receptor (GnRHR); 3xEC50 GnRH + 20 nM antagonist)	AUC of the kinetics of intracellular Ca2+ response (GnRH receptor (GnRHR); [2])	AUC of the kinetics of intracellular Ca2+ response (GnRH receptor (GnRHR); 3xEC50 GnRH + 1 uM antagonist)	effect on GnRH-induced Lhb gene expression (Lhb gene expression)
CCN=C(NCC)NCCCC[C@H](NC(=O)[C@H](CC(C)C)NC(=O)[C@@H](CCCCNC(=NCC)NCC)NC(=O)[C@H](Cc1ccc(O)cc1)NC(=O)[C@H](CO)NC(=O)[C@@H](Cc1cccnc1)NC(=O)[C@@H](Cc1ccc(Cl)cc1)NC(=O)[C@@H](Cc1ccc2ccccc2c1)NC(C)=O)C(=O)N1CCC[C@H]1C(=O)N[C@H](C)C(N)=O [Ganirelix] (Ac-[d2Nal][dPhe(4-Cl)][d3Pal]SY[d(hArg(Et2))]L[hArg(Et2)]P[dA]-NH2; N-terminus and C-terminus assumed)	reduced	93877±14161	113983±12281	116076±24125	75460±15613	83904±19566	52343±8665	82720±17902	6523±3056	inhibited
CC(=O)N[C@H](Cc1ccc2ccccc2c1)C(=O)N[C@H](Cc1ccc(Cl)cc1)C(=O)N[C@H](Cc1cccnc1)C(=O)N[C@@H](CO)C(=O)N[C@@H](Cc1ccc(O)cc1)C(=O)N[C@H](CCCNC(N)=O)C(=O)N[C@@H](CC(C)C)C(=O)N[C@@H](CCCNC(=N)N)C(=O)N1CCC[C@H]1C(=O)N[C@H](C)C(N)=O [Cetrorelix] (Ac-[d2Nal][dPhe(4-Cl)][d3Pal]SY[dCit]LRP[dA]-NH2)	reduced	105586±22643	103653±11947	118914±31558	81413±26479	81282±26769	58382±8030	46414±15714	13355±4381	inhibited

— article PMC6888270 (International Journal of Molecular Sciences, 2019)
